Source: patent publication US9399646B2 (Genentech, Inc., priority 2010, dated 2016)

Columns and labels:
ER-α in MCF-7 cells = target: T1, ER-α in MCF-7 cells (Homo sapiens, UniProt P03372); assay: Breast cancer cell ER-α in cell western assay (SP1); assay type: cell-based; set-up: endogenous in cells; host or cells: MCF-7; settings: 4 or 24 hr post compound addition; for Emax: MCF7, SP1 antibody, read-out: ER-α In Cell Western Assay (SP1) Max Response; for DC50: SP1 antibody, read-out: ER-α In Cell Western Assay (SP1) IC50
T1 sequence (P03372 1-595): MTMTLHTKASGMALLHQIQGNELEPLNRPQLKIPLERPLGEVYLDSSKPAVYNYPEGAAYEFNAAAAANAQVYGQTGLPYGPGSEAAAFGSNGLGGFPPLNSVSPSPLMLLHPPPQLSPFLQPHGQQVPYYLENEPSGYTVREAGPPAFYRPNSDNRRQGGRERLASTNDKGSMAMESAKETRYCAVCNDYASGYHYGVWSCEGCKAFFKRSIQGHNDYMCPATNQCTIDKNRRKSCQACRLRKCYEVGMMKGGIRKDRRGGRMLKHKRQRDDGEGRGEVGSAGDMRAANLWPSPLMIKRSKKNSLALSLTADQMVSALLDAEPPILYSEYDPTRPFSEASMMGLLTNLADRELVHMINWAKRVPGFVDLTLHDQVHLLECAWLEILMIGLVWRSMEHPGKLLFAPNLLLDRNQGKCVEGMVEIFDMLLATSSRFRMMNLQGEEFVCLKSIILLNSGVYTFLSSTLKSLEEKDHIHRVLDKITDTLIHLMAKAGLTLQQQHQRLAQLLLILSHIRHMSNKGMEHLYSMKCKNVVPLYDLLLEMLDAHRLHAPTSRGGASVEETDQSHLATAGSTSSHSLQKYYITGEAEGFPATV
Procedure, shortened: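 Fixed cells were immunostained with SP1 anti-ER antibody; ER signal (800 nm) was normalized to DRAQ5 DNA signal (700 nm) and expressed as % of untreated cells.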

MCF-7 cells = assay: Breast cancer cell viability assay (CellTiter-Glo, 5 days); assay type: cell-based; settings: 5 days' compound exposure; for IC50: Homo sapiens, MCF7, 120 h
Procedure, shortened: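 Eleven-point semilog compound series, final 0.3-0.000003 μM, added to overnight-adhered MCF-7 cells (320/well; RPMI, 10% FBS, 20 mM HEPES) for 5 days. Viability read by CellTiter-Glo luminescence, background from medium without cells subtracted, expressed relative to untreated cells.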

SMILES: CC/C(=C(/c1ccc(/C=C/C(=O)O)cc1)c1ccc2[nH]ncc2c1)c1cccc(OCCCOC)c1 [Compound 342, (E)-3-(4-((E)-1-(1H-Indazol-5-yl)-2-(3-(3-methoxypropoxy)phenyl)but-1-en-1-yl)phenyl)acrylic acid]
- Emax (ER-α in MCF-7 cells): ≥ 40%
- DC50 (ER-α in MCF-7 cells): ≤ 100 nM
- MCF7 Viability Assay Max Response (MCF-7 cells): ++ (++ = a single % value ≧ 40%)
- IC50 (MCF-7 cells): ≤ 100 nM

SMILES: CC/C(=C(/c1ccc(/C=C/C(=O)O)cc1)c1ccc2[nH]ncc2c1F)c1cccc(OC2CCN(C)CC2)c1 [Compound 343, (E)-3-(4-((E)-1-(4-Fluoro-1H-indazol-5-yl)-2-(3-((1-methylpiperidin-4-yl)oxy)phenyl)but-1-en-1-yl)phenyl)acrylic acid]
- Emax (ER-α in MCF-7 cells): ≥ 40%
- DC50 (ER-α in MCF-7 cells): > 100 nM
- MCF7 Viability Assay Max Response (MCF-7 cells): ++ (++ = a single % value ≧ 40%)
- IC50 (MCF-7 cells): > 100 nM

SMILES: CC/C(=C(/c1ccc(/C=C/C(=O)O)cc1)c1ccc2[nH]ncc2c1F)c1cccc(OC2CCOCC2)c1 [Compound 344, (E)-3-(4-((E)-1-(4-Fluoro-1H-indazol-5-yl)-2-(3-((tetrahydro-2H-pyran-4-yl)oxy)phenyl)but-1-en-1-yl)phenyl)acrylic acid]
- Emax (ER-α in MCF-7 cells): ≥ 40%
- DC50 (ER-α in MCF-7 cells): ≤ 100 nM
- MCF7 Viability Assay Max Response (MCF-7 cells): ++ (++ = a single % value ≧ 40%)
- IC50 (MCF-7 cells): > 100 nM

SMILES: CC/C(=C(/c1ccc(/C=C/C(=O)O)cc1)c1ccc2[nH]ncc2c1F)c1cccc(OC2CCCCC2)c1 [Compound 345, (E)-3-(4-((E)-2-(3-(Cyclohexyloxy)phenyl)-1-(4-fluoro-1H-indazol-5-yl)but-1-en-1-yl)phenyl)acrylic acid]
- Emax (ER-α in MCF-7 cells): ≥ 40%
- DC50 (ER-α in MCF-7 cells): ≤ 100 nM
- MCF7 Viability Assay Max Response (MCF-7 cells): ++ (++ = a single % value ≧ 40%)
- IC50 (MCF-7 cells): ≤ 100 nM

SMILES: CC/C(=C(/c1ccc(/C=C/C(=O)O)cc1)c1ccc2[nH]ncc2c1)c1cccc(OCC(=O)O)c1 [Compound 347, (E)-3-(4-((E)-2-(3-(Carboxymethoxy)phenyl)-1-(1H-indazol-5-yl)but-1-en-1-yl)phenyl)acrylic acid]
- Emax (ER-α in MCF-7 cells): < 40%
- DC50 (ER-α in MCF-7 cells): > 100 nM
- MCF7 Viability Assay Max Response (MCF-7 cells): + (+ = a single % value < 40%)
- IC50 (MCF-7 cells): > 100 nM

SMILES: CC/C(=C(/c1ccc(/C=C/C(=O)O)cc1)c1ccc2[nH]ncc2c1)c1ccc(OCC(=O)O)cc1 [Compound 348, (E)-3-(4-((E)-2-(4-(Carboxymethoxy)phenyl)-1-(1H-indazol-5-yl)but-1-en-1-yl)phenyl)acrylic acid]
- Emax (ER-α in MCF-7 cells): < 40%
- DC50 (ER-α in MCF-7 cells): > 100 nM
- MCF7 Viability Assay Max Response (MCF-7 cells): + (+ = a single % value < 40%)
- IC50 (MCF-7 cells): > 100 nM

SMILES: CCCCCOc1cccc(/C(CC)=C(\c2ccc(/C=C/C(=O)O)cc2)c2ccc3[nH]ncc3c2)c1 [Compound 349, (E)-3-(4-((E)-1-(1H-Indazol-5-yl)-2-(3-(pentyloxy)phenyl)but-1-en-1-yl)phenyl)acrylic acid]
- Emax (ER-α in MCF-7 cells): ≥ 40%
- DC50 (ER-α in MCF-7 cells): ≤ 100 nM
- MCF7 Viability Assay Max Response (MCF-7 cells): ++ (++ = a single % value ≧ 40%)
- IC50 (MCF-7 cells): ≤ 100 nM

SMILES: CCCCCCOc1cccc(/C(CC)=C(\c2ccc(/C=C/C(=O)O)cc2)c2ccc3[nH]ncc3c2)c1 [Compound 350, (E)-3-(4-((E)-2-(3-(Hexyloxy)phenyl)-1-(1H-indazol-5-yl)but-1-en-1-yl)phenyl)acrylic acid]
- Emax (ER-α in MCF-7 cells): ≥ 40%
- DC50 (ER-α in MCF-7 cells): ≤ 100 nM
- MCF7 Viability Assay Max Response (MCF-7 cells): ++ (++ = a single % value ≧ 40%)
- IC50 (MCF-7 cells): > 100 nM

SMILES: CC/C(=C(/c1ccc(/C=C/C(=O)O)cc1)c1ccc2[nH]ncc2c1)c1cccc(OCCCC(=O)O)c1 [Compound 351, 4-(3-((E)-1-(4-((E)-2-Carboxyvinyl)phenyl)-1-(1H-indazol-5-yl)but-1-en-2-yl)phenoxy)butanoic acid]
- Emax (ER-α in MCF-7 cells): ≥ 40%
- DC50 (ER-α in MCF-7 cells): > 100 nM
- MCF7 Viability Assay Max Response (MCF-7 cells): + (+ = a single % value < 40%)
- IC50 (MCF-7 cells): > 100 nM

SMILES: CC/C(=C(/c1ccc(/C=C/C(=O)O)cc1)c1ccc2[nH]ncc2c1)c1cccc(OCCCCC(=O)O)c1 [Compound 352, 5-(3-((E)-1-(4-((E)-2-Carboxyvinyl)phenyl)-1-(1H-indazol-5-yl)but-1-en-2-yl)phenoxy)pentanoic acid]
- Emax (ER-α in MCF-7 cells): ≥ 40%
- DC50 (ER-α in MCF-7 cells): > 100 nM
- MCF7 Viability Assay Max Response (MCF-7 cells): + (+ = a single % value < 40%)
- IC50 (MCF-7 cells): > 100 nM

SMILES: CC/C(=C(/c1ccc(/C=C/C(=O)O)cc1)c1ccc2[nH]ncc2c1)c1ccc(OCCCC(=O)O)cc1 [Compound 353, 4-(4-((E)-1-(4-((E)-2-Carboxyvinyl)phenyl)-1-(1H-indazol-5-yl)but-1-en-2-yl)phenoxy)butanoic acid]
- Emax (ER-α in MCF-7 cells): ≥ 40%
- DC50 (ER-α in MCF-7 cells): > 100 nM
- MCF7 Viability Assay Max Response (MCF-7 cells): + (+ = a single % value < 40%)
- IC50 (MCF-7 cells): > 100 nM

SMILES: CC/C(=C(/c1ccc(/C=C/C(=O)O)cc1)c1ccc2[nH]ncc2c1)c1ccc(OCCCCC(=O)O)cc1 [Compound 354, 5-(4-((E)-1-(4-((E)-2-Carboxyvinyl)phenyl)-1-(1H-indazol-5-yl)but-1-en-2-yl)phenoxy)pentanoic acid]
- Emax (ER-α in MCF-7 cells): ≥ 40%
- DC50 (ER-α in MCF-7 cells): > 100 nM
- MCF7 Viability Assay Max Response (MCF-7 cells): + (+ = a single % value < 40%)
- IC50 (MCF-7 cells): > 100 nM

SMILES: CCCCCOc1ccc(/C(CC)=C(\c2ccc(/C=C/C(=O)O)cc2)c2ccc3[nH]ncc3c2)cc1 [Compound 356, (E)-3-(4-((E)-1-(1H-Indazol-5-yl)-2-(4-(pentyloxy)phenyl)but-1-en-1-yl)phenyl)acrylic acid]
- Emax (ER-α in MCF-7 cells): ≥ 40%
- DC50 (ER-α in MCF-7 cells): ≤ 100 nM
- MCF7 Viability Assay Max Response (MCF-7 cells): ++ (++ = a single % value ≧ 40%)
- IC50 (MCF-7 cells): > 100 nM

SMILES: CCCCCCOc1ccc(/C(CC)=C(\c2ccc(/C=C/C(=O)O)cc2)c2ccc3[nH]ncc3c2)cc1 [Compound 357, (E)-3-(4-((E)-2-(4-(Hexyloxy)phenyl)-1-(1H-indazol-5-yl)but-1-en-1-yl)phenyl)acrylic acid]
- Emax (ER-α in MCF-7 cells): ≥ 40%
- DC50 (ER-α in MCF-7 cells): > 100 nM
- MCF7 Viability Assay Max Response (MCF-7 cells): ++ (++ = a single % value ≧ 40%)
- IC50 (MCF-7 cells): > 100 nM

SMILES: CC/C(=C(/c1ccc(/C=C/C(=O)O)cc1)c1ccc2[nH]ncc2c1)c1cccc(OCc2ccccc2)c1 [Compound 358, (E)-3-(4-((E)-2-(3-(Benzyloxy)phenyl)-1-(1H-indazol-5-yl)but-1-en-1-yl)phenyl)acrylic acid]
- Emax (ER-α in MCF-7 cells): ≥ 40%
- DC50 (ER-α in MCF-7 cells): ≤ 100 nM
- MCF7 Viability Assay Max Response (MCF-7 cells): ++ (++ = a single % value ≧ 40%)
- IC50 (MCF-7 cells): ≤ 100 nM

SMILES: CC/C(=C(/c1ccc(/C=C/C(=O)O)cc1)c1ccc2[nH]ncc2c1)c1cccc(OCc2cccnc2)c1 [Compound 359, (E)-3-(4-((E)-1-(1H-Indazol-5-yl)-2-(3-(pyridin-3-ylmethoxy)phenyl)but-1-en-1-yl)phenyl)acrylic acid]
- Emax (ER-α in MCF-7 cells): ≥ 40%
- DC50 (ER-α in MCF-7 cells): ≤ 100 nM
- MCF7 Viability Assay Max Response (MCF-7 cells): ++ (++ = a single % value ≧ 40%)
- IC50 (MCF-7 cells): ≤ 100 nM

SMILES: CC/C(=C(/c1ccc(/C=C/C(=O)O)cc1)c1ccc2[nH]ncc2c1)c1ccc(OCCO)cc1 [Compound 360, (E)-3-(4-((E)-2-(4-(2-Hydroxyethoxy)phenyl)-1-(1H-indazol-5-yl)but-1-en-1-yl)phenyl)acrylic acid]
- Emax (ER-α in MCF-7 cells): ≥ 40%
- DC50 (ER-α in MCF-7 cells): > 100 nM
- MCF7 Viability Assay Max Response (MCF-7 cells): ++ (++ = a single % value ≧ 40%)
- IC50 (MCF-7 cells): > 100 nM

SMILES: CC/C(=C(/c1ccc(/C=C/C(=O)O)cc1)c1ccc2[nH]ncc2c1)c1cccc(Oc2ccccn2)c1 [Compound 362, (E)-3-(4-((E)-1-(1H-Indazol-5-yl)-2-(3-(pyridin-2-yloxy)phenyl)but-1-en-1-yl)phenyl)acrylic acid]
- Emax (ER-α in MCF-7 cells): ≥ 40%
- DC50 (ER-α in MCF-7 cells): ≤ 100 nM
- MCF7 Viability Assay Max Response (MCF-7 cells): ++ (++ = a single % value ≧ 40%)
- IC50 (MCF-7 cells): ≤ 100 nM
